The text below walks through data of US7319094B2, “Increased and sustained in vivo gene expression using a nucleic acid, histone and amphipathic compound composition” (Rhode Island Hospital, priority 2001, dated 2008).

Experiment [1] relates to PNET2 cells induced to express AD7c-NTP. The experiment in a line: Crystal violet viability assay. The format is cell-based, human. Particulars: 3 mM IPTG-induced AD7c-NTP; relative to un-induced FCS-stimulated and IPTG-induced NGF or PDGF stimulated cultures. How it is done:
To examine the effects of different growth factors on AD7c-NTP expression (and over-expression), the cells were serum-starved for 16 hours, after which IPTG (1-5 mM) was added to the medium. Four hours later, the cells were stimulated with insulin (50 nM), IGF-1 (5 ng/ml), NGF ([…]), or platelet-derived growth factor (PDGF; 5 ng/ml) for 24-72 hours. The cells were analyzed for morphological changes, viability, AD7c-NTP immunoreactivity, and expression of pro-apoptosis genes, survival genes, and phospho-tau.
Viability was measured by a standard crystal violet assay. Crystal violet dye labels only viable cells. The assays were performed with cells seeded into 96-well plates at a density of 2×10^4 cells/well. The absorbances were measured using a Spectracount plate reader (Packard, Meriden, Conn.). The crystal violet absorbances increased linearly with cell density between 10^4 and 5×10^5 cells/well.
Cells were serum-starved for 24 hours. However, since several hours of IPTG stimulation were required to induce AD7c-NTP gene expression or CAT activity, IPTG (3 mM) was added to the cultures after 16 hours of serum-starvation, i.e. 8 hours prior to growth factor stimulation. […]
Increased cell loss associated with insulin-stimulation and AD7c-NTP over-expression Cell viability was quantified using the microculture Crystal violet assay with cells seeded into 96-well plates. […]

The subject of the next experiment is p25. The experiment in a line: p25 expression, Western blot / MICE assay. The format is cell-based, human. Particulars: PNET2 cells induced to express AD7c-NTP. An excerpt:
Standard Western blot assays wew used to measure cellular levels of p53, Bcl-2, p21/Waf1, phospho-tau, tau, c-fos, NTP, and activated (phosphorylated) forms of Erk mitogen activated protein (MAP) kinase, amino-terminal c-jun-activated kinase (pJNK), and p38/HOG1. Immunoprecipitation followed by Western blot analysis was used to measure p85 subunit associated with IRS1. For Western blot analysis of p53 Bcl-2, phospho-tau, tau, c-fos, and NTP, the cells were lysed in ice cold radioimmunoprecipitation assay (RIPA) buffer supplemented with protease and phosphatase inhibitors. […] Protein concentrations were measured using the BCA assay (Pierce, Rockford, Ill.). Samples containing 60 μg of protein were fractionated by sodium dodecyl sulfate polyacrylamide gel electrophoresis (SDS-PAGE), then transferred to PVDF membranes, and analyzed by Western immunoblotting. Immunoreactivity was detected with horseradish peroxidase conjugated secondary IgG and PicoWest enhanced chemiluminescence reagents (Pierce Chemical Company, Rockford, Ill.). CAT activity was measured using known methods.
The MICE assay is known in the art (e.g., as described by de la Monte et al., 1999, Biotechniques 26:107301076). […] Immunoreactivity was detected using horseradish peroxidase conjugated secondary antibody (Pierce, Rockford, Ill.) and the TMB soluble peroxidase substrate (Pierce, Rockford, Ill.). […]
In general terms: Immunoblotting shows a protein as a band on a membrane.

Turning to “insulin: Human insulin purchased from Novagen”, the “cell density (crystal violet)” value in experiment [1] was “significantly reduced cell densities”. In addition, the p25 level entry with p25 is “significantly increased levels”.
